Test results from US20220380314A1, “SUBSTITUTED, SATURATED AND UNSATURATED N-HETEROCYCLIC CARBOXAMIDES AND RELATED COMPOUNDS FOR THEIR USE IN THE TREATMENT OF MEDICAL DISORDERS” (Bial - R&D Investments, S.A., priority 2019, published 2022).

Target: T1, acid ceramidase (hACR) (Homo sapiens, UniProt Q13510)
T1 construct: expressed in transfected cells; cell lysate used
T1 sequence (Q13510 143-395 limits assumed): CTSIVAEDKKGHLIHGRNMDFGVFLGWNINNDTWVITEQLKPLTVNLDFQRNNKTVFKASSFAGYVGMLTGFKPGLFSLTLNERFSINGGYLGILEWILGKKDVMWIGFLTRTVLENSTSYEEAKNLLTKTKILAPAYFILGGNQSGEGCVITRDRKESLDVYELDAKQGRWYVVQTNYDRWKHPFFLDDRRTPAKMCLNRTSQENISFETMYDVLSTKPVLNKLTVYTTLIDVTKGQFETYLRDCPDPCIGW
T1 sequence (Q13510 22-142 limits assumed): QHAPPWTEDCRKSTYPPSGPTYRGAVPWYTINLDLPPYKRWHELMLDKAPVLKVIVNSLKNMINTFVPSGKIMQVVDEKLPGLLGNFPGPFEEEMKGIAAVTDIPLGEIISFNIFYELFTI
Assay: Acid ceramidase inhibition, biochemical fluorescent assay with cell lysates overexpressing acid ceramidase, substrate Rbm14-12
Conditions: cell lysates overexpressing acid ceramidase; 1 hr preincubation at RT; pH 4.5; substrate Rbm14-12 6.3 μM; read-out: hACR IC50
Procedure: The ability of exemplary compounds to inhibit acid ceramidase was measured.
Cell lysates overexpressing acid ceramidase were used as the enzyme source for compound potency determination in a biochemical fluorescent assay. Briefly, compounds were preincubated with 10 µg protein of cell lysates in a dose-response manner for 1 hr at RT in the assay buffer containing 25 mM NaAC and 100 mM NaCl, pH 4.5. The reaction was initiated by the addition of substrate Rbm14-12 at a final concentration of 6.3 μM. The reaction was run at RT for 1 hr before it was stopped by the addition of the stopping buffer containing 20% methanol (v/v), 1 mg/ml NaIO4, 0.1 M glycine, pH 10.6. The samples were incubated with the stopping buffer at RT for 1 hr to allow the fluorescent product to be formed. Finally the plate was read with SpectraMax i3 plate reader (Molecular Devices) at ex360 nm and em446 nm. Data were collected and used to determine the IC50 values of compounds by curve fitting to the four-parameter inhibition equation.
The symbol “A” indicates inhibition of less than 0.2 μM; the symbol “B” indicates inhibition in the range of 0.2 μM up to 1 μM; and the symbol “C” indicates inhibition of greater than 1 μM.

| IC50 | SMILES |
| --- | --- |
| > 1000 nM | CCCCCNC(=O)N1CCN(C2CC2)C[C@@H]1C(C)C [Example 118, (2S)-4-Cyclopropyl-2-isopropyl-N-pentylpiperazine-1-carboxamide] |
| > 1000 nM | CC1CN(C(=O)NCCCCc2ccccc2)C(C)(C)CC1=O (stereo not drawn) [Example 119, 2,2,5-Trimethyl-4-oxo-N-(4-phenylbutyl)piperidine-1-carboxamide] |
| > 1000 nM | CC1(C)CN(C(=O)NCCCCc2ccccc2)C(C)(C)CC1=O [Example 120, 2,2,5,5-Tetramethyl-4-oxo-N-(4-phenylbutyl)piperidine-1-carboxamide] |
| < 200 nM | CC1(C)CC(=O)C(Cc2ccccc2)CN1C(=O)NCCCCc1ccccc1 (stereo not drawn) [Example 121, 5-Benzyl-2,2-dimethyl-4-oxo-N-(4-phenylbutyl)piperidine-1-carboxamide] |
| < 200 nM | CC1(C)CC(=O)/C(=C/c2ccccc2)CN1C(=O)NCCCCc1ccccc1 [Example 122, (5E)-5-Benzylidene-2,2-dimethyl-4-oxo-N-(4-phenylbutyl)piperidine-1-carboxamide] |
| > 1000 nM | CC1(C)CC(=O)C(c2ccccc2)CN1C(=O)NCCCCc1ccccc1 (stereo not drawn) [Example 123, 2,2-Dimethyl-4-oxo5-phenyl-N-(4-phenylbutyl)piperidine-1-carboxamide] |
| < 200 nM | CCCCCNC(=O)N1CC(C)C(N2CCCCC2)CC1(C)C (stereo not drawn) [Example 124, 2,2,5-Trimethyl-N-pentyl-4-(1-piperidyl)piperidine-1-carboxamide] |
| < 200 nM | CC1(C)CC(N2CCCCC2)C(Cc2ccccc2)CN1C(=O)NCCCCc1ccccc1 (stereo not drawn) [Example 125, 5-Benzyl-2,2-dimethyl-N-(4-phenylbutyl)-4-(1-piperidyl)piperidine-1-carboxamide] |
| < 200 nM | CC1(C)CC(N2CCCCC2)C(Cc2ccccc2)CN1C(=O)NCCc1ccccc1 (stereo not drawn) [Example 126, 5-Benzyl-2,2-dimethyl-N-(2-phenylethyl)-4-(1-piperidyl)piperidine-1-carboxamide] |
| < 200 nM | CCCCCNC(=O)N1CC(Cc2ccccc2)C(N2CCCCC2)CC1(C)C (stereo not drawn) [Example 127, 5-Benzyl-2,2-dimethyl-N-pentyl-4-(1-piperidyl)piperidine-1-carboxamide] |
| < 200 nM | CC1(C)CC(N2CCCCC2)/C(=C/c2ccccc2)CN1C(=O)NCCCCc1ccccc1 (stereo not drawn) [Example 128, (5E)-5-Benzylidene-2,2-dimethyl-N-(4-phenylbutyl)-4-(1-piperidyl)piperidine-1-carboxamide] |
| 200 to 1000 nM | CC1(C)CC(N2CCCCC2)/C(=C/c2ccccc2)CN1C(=O)NCCc1ccccc1 (stereo not drawn) [Example 129, (5E)-5-Benzylidene-2,2-dimethyl-N-(2-phenylethyl)-4-(1-piperidyl)piperidine-1-carboxamide] |
| < 200 nM | CCCCCNC(=O)N1C/C(=C\c2ccccc2)C(N2CCCCC2)CC1(C)C (stereo not drawn) [Example 130, (5E)-5-Benzylidene-2,2-dimethyl-N-pentyl-4-(1-piperidyl)piperidine-1-carboxamide] |
| < 200 nM | CCCCCNC(=O)N1CC(c2ccccc2)C(N2CCCCC2)CC1(C)C (stereo not drawn) [Example 131, 2,2-Dimethyl-N-pentyl-5-phenyl-4-(1-piperidyl)piperidine-1-carboxamide] |
| < 200 nM | CC1(C)COCC(c2ccccc2)N1C(=O)NCCCCc1ccccc1 (stereo not drawn) [Example 133, 3,3-Dimethyl-5-phenyl-N-(4-phenylbutyl)morpholine-4-carboxamide] |
| < 200 nM | CCCCCCCNC(=O)N1C(c2ccccc2)COCC1(C)C (stereo not drawn) [Example 134, N-Heptyl-3,3-dimethyl-5-phenylmorpholine-4-carboxamide] |
| 200 to 1000 nM | CC1(C)COCC(c2ccccc2)N1C(=O)NC1CCCCC1 (stereo not drawn) [Example 135, N-Cyclohexyl-3,3-dimethyl-5-phenylmorpholine-4-carboxamide] |

| IC50 | SMILES |
| --- | --- |
| < 200 nM | CC1(C)COCC(c2ccc(F)cc2)N1C(=O)NCCCCc1ccccc1 (stereo not drawn) [Example 136, 5-(4-Fluorophenyl)-3,3-dimethyl-N-(4-phenylbutyl)morpholine-4-carboxamide] |
| < 200 nM | CC(C)CNC(=O)N1C(c2ccc(F)cc2)COCC1(C)C (stereo not drawn) [Example 140, 5-(4-Fluorophenyl)-N-isobutyl-3,3-dimethylmorpholine-4-carboxamide] |
| 200 to 1000 nM | CCCCCNC(=O)N1[C@@H](C)COC[C@H]1c1ccc(F)cc1 [Example 141, (3R,5S)-3-(4-Fluorophenyl)-5-methyl-N-pentylmorpholine-4-carboxamide] |
| 200 to 1000 nM | CCCCCNC(=O)N1[C@H](C)COC[C@@H]1c1ccc(F)cc1 [Example 142, (3S,5R)-3-(4-Fluorophenyl)-5-methyl-N-pentylmorpholine-4-carboxamide] |
| < 200 nM | COc1ccc(C2COCC(C)(C)N2C(=O)NCC(C)C)cc1 (stereo not drawn) [Example 143, N-iso-Butyl-5-(4-methoxyphenyl)-3,3-dimethylmorpholine-4-carboxamide] |
| < 200 nM | COc1ccc(C2COCC(C)(C)N2C(=O)NCCC2CC2)cc1 (stereo not drawn) [Example 146, N-(2-Cyclopropylethyl)-5-(4-methoxyphenyl)-3,3-dimethylmorpholine-4-carboxamide] |
| < 200 nM | COc1ccc(C2COCC(C)(C)N2C(=O)NCCC(C)C)cc1 (stereo not drawn) [Example 147, N-iso-Pentyl-5-(4-methoxyphenyl)-3,3-dimethylmorpholine-4-carboxamide] |
| < 200 nM | COc1ccc(C2COCC(C)(C)N2C(=O)NCCc2ccc(F)cc2)cc1 (stereo not drawn) [Example 148, N-[2-(4-Fluorophenyl)ethyl]-5-(4-methoxyphenyl)-3,3-dimethylmorpholine-4-carboxamide] |
| < 200 nM | COc1ccc(C2COCC(C)(C)N2C(=O)NCCCCC2CC2)cc1 (stereo not drawn) [Example 149, N-(4-Cyclopropylbutyl)-5-(4-methoxyphenyl)-3,3-dimethylmorpholine-4-carboxamide] |
| < 200 nM | COc1ccc(C2COCC(C)(C)N2C(=O)NCC2CCCCC2)cc1 (stereo not drawn) [Example 150, N-(Cyclohexylmethyl)-5-(4-methoxyphenyl)-3,3-dimethylmorpholine-4-carboxamide] |
| < 200 nM | COc1ccc(C2COCC(C)(C)N2C(=O)NCc2ccc(F)cc2)cc1 (stereo not drawn) [Example 151, N-[(4-Fluorophenyl)methyl]-5-(4-methoxyphenyl)-3,3-dimethylmorpholine-4-carboxamide] |
| > 1000 nM | COc1ccc(C2COCC(C)(C)N2C(=O)NCC(F)(F)F)cc1 (stereo not drawn) [Example 152, 5-(4-Methoxyphenyl)-3,3-dimethyl-N-(2,2,2-trifluoroethyl)morpholine-4-carboxamide] |
| < 200 nM | CCCCCNC(=O)N1C(c2ccccc2C)COCC1(C)C (stereo not drawn) [Example 158, 3,3-Dimethyl-5-(o-tolyl)-N-pentylmorpholine-4-carboxamide] |
| < 200 nM | CCCCCNC(=O)N1C(c2ccc(OC)nc2)COCC1(C)C (stereo not drawn) [Example 159, 5-(6-Methoxy-3-pyridyl)-3,3-dimethyl-N-pentylmorpholine-4-carboxamide] |
| < 200 nM | CCCCCNC(=O)N1C(c2ccc(OC)cc2F)COCC1(C)C (stereo not drawn) [Example 160, 5-(2-Fluoro-4-methoxyphenyl)-3,3-dimethyl-N-pentylmorpholine-4-carboxamide] |
| < 200 nM | CCCCCNC(=O)N1C(c2ccc(OC)c(F)c2)COCC1(C)C (stereo not drawn) [Example 161, 5-(3-Fluoro-4-methoxyphenyl)-3,3-dimethyl-N-pentylmorpholine-4-carboxamide] |
